# Test results taken from patent US20130209433A1, “MODULATION OF AMINO ACID METABOLISM IN THE HYPOTHALAMUS” (Albert Einstein College of Medicine of Yeshiva University, priority 2005, published 2013).
# How the values were obtained:
# conscious rats = test: Intrahypothalamic (mediobasal hypothalamus) infusion with pancreatic clamp; assay type: in vivo, rat; details: for rate of glucose infusion required to maintain basal glucose levels: IH infusion 0.33 μl/h (L-glutamate 1 mM; KIC 3 mM bilaterally); for glucose production: IH infusion into mediobasal hypothalamus
# Procedure: Thus, we next tested whether the intra-hypothalamic ([…]) administration of glutamate could recapitulate the effects of […] proline on glucose production.
# We next aimed to localize the central effects of KIC on liver glucose production. Toward this end, we administered 3 mM KIC (0.33 μl/h) bilaterally within the parenchyma of the medial hypothalamus. The total amount of KIC given during these experiments was 15 fold lower than that used in the ICV experiments. The correct placement of the hypothalamic cannulae was verified via the infusion of radiolabeled KIC as previously reported.
# Sprague Dawley rats = test: ICV (third cerebral ventricle) infusion combined with systemic pancreatic-insulin clamp; assay type: in vivo, rat; details: for rate of glucose infusion (GIR) required to prevent hypoglycemia / decrease in endogenous glucose production / rate of glucose uptake: ICV infusion; for rate of glucose infusion (GIR) required to prevent hypoglycemia / decrease in endogenous glucose production: 3 mM solution at 5 μl/h for 6 hr; for rate of glucose infusion (GIR) required to prevent hypoglycemia: basal insulin clamp; for decrease in endogenous glucose production / rate of glucose uptake: pancreatic-insulin clamp; for rate of glucose uptake: 3 mM solution at 5 μl/h
# Text: To test this hypothesis we asked whether a primary increase in hypothalamic proline is per se sufficient to inhibit glucose production, and whether this effect requires metabolism of lactate to pyruvate. Experiments were designed to examine the effect of central administration of proline on whole body insulin action. In order to selectively increase the central availability of proline, we infused this amino acid via a chronic cannula implanted in the third cerebral ventricle (ICV) of conscious rats.
# Proline (PRO, 3 mM solution at 5 μl/h) or vehicle (CON) was infused ICV for 6 hr in chronically catheterized Sprague Dawley rats. Insulin action was assessed by a combination of ICV infusions with systemic pancreatic-insulin clamp studies in order to control for the circulating levels of glucoregulatory hormones.
# We next examined whether the effect of central proline on glucose production requires the inter-conversion between lactate and pyruvate catalyzed by LDH. In light of the ‘astrocyte-neuron lactate shuttle hypothesis’ (Pellerin and Magistretti, 2004), we proposed that central administration of proline leads to increased glutamate synthesis results in the increased formation of lactate (increased glycolysis) in astro-glia (Pellerin and Magistretti, 2004). Based on our previous work, the increased availability of lactate would in turn be expected to induce robust changes in liver glucose fluxes. Consistent with this hypothesis, impeding the conversion of glucose to lactate in astrocytes or of lactate to pyruvate in neurons within the hypothalamus should inhibit the potent metabolic effects of central proline on liver glucose fluxes. Oxamate (OXA) is a competitive inhibitor of LDH (Brooks et al., 1999). Thus, to test this hypothesis we next co-infused ICV oxamate (50 mM; 3 μl bolus; 5 μl/h) with proline in order to examine whether lactate metabolism is required for the effects of proline and presumably of other gluconeogenic amino acids on glucose production.
# The entry of ketogenic amino acids into the oxidative pathway requires their conversion to the respective keto acid a reaction that is catalyzed by various amino acid aminotransferases. The keto acid product generated by leucine aminotransferase from leucine is α-ketoisocaproic acid (KIC) that can then be converted to acetyl-CoA by the consecutive action of five enzymes. The rate-limiting step in this process is the oxidative decarboxylation of KIC catalyzed by the branched-chain ketoacid dehydrogenase complex or BCKDC. This enzyme is inhibited by phosphorylation by a BCKDC kinase. Importantly, BCKDC can be robustly activated by α-chloroisocaproic acid (α-CIC) via inhibition of the BCKDC kinase (Harris et al., 1982). To test whether the central metabolism of ketogenic amino acids such as leucine could also lead to inhibition of glucose production, we next asked whether a primary increase in hypothalamic KIC is per se sufficient to inhibit glucose production, and whether this effect also requires metabolism of lactate to pyruvate and activation of ATP-dependent potassium channels (KATP). Experiments were designed to examine the effect of central administration of KIC on whole body insulin action.
SMILES,rate of glucose infusion required to maintain basal glucose levels (conscious rats; pancreatic clamp),glucose production (conscious rats),rate of glucose infusion (GIR) required to prevent hypoglycemia (Sprague Dawley rats) [mg/kg/min],decrease in endogenous glucose production (Sprague Dawley rats) [%],rate of glucose uptake (Sprague Dawley rats),further results
"CC(C)CC(=O)C(=O)O [KIC, α-ketoisocaproic acid]",increase,suppression,5.2 ± 0.7,40±4,not significantly affected,"glucose utilization (GU) (conscious rats; IH 3 mM KIC, 0.33 μl/h bilaterally, pancreatic clamp): not altered"
N[C@@H](CCC(=O)O)C(=O)O [L-glutamate],significantly increased,marked suppression,–,–,–,"circulating glucose after IH administration (conscious rats; IH 1 mM, 0.33 μl/h): 136 ± 2 mg/dL; circulating glucose before IH administration (conscious rats; basal value, before IH L-glutamate 1 mM, 0.33 μl/h): 159 ± 3 mg/dL"
"COc1ccc(Cl)cc1C(=O)NCCc1ccc(S(=O)(=O)NC(=O)NC2CCCCC2)cc1 [glibenclamide, reference compound]",–,–,–,–,–,"effect per se on rate of glucose infusion and liver glucose fluxes (Sprague Dawley rats; ICV infusion alone, pancreatic clamp): no effects; effect on the effects of ICV KIC on rate of glucose infusion and liver glucose fluxes (Sprague Dawley rats; co-infused ICV with KIC, oxamate 50 mM, 3 μl bolus, 5 μl/h, glibenclamide 100 μM, pancreatic clamp): negated"
O=C(O)[C@@H]1CCCN1 [proline],–,–,5.7 ± 0.9,36±2,not significantly affected,–
"CC(C)CC(Cl)C(=O)O (stereo not drawn) [α-CIC, α-chloroisocaproic acid]",–,decrease endogenous glucose production,–,–,–,"blood glucose levels (conscious rats; intrahypothalamic infusion, conscious rats): lower blood glucose levels"
